Target: T1, PhoP (Salmonella enterica I, UniProt A6XC03)
T1 sequence (A6XC03 whole entry): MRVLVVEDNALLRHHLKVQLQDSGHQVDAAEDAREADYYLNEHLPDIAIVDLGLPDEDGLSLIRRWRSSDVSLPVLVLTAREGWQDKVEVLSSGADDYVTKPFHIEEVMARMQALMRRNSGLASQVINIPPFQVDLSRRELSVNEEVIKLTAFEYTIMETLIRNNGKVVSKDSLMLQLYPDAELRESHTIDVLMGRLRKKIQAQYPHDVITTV
Assay: Inhibition Assay
Text: Inhibition of a protein-protein activity by EMSA assay.

| SMILES | IC50 |
| --- | --- |
| O=C(C[n+]1ccc2ccccc2c1)c1ccc2ccc3ccccc3c2c1 [NSC35489, 4] | 14000 µM |
| O=S(=O)(O)c1ccc2c(N=Nc3c(O)ccc4ccccc34)cccc2c1 [NSC45576, 2] | 12 µM |
| O=C1c2ccccc2C(=O)c2c1ccc(C(=O)O)c2-c1cccc2ccccc12 [NSC9608, 1] | 11000 µM |
| CC(C)c1ccc2c(c1)CCC1C(C)(CN)CCCC21C (stereo not drawn) [NSC65238, 5] | 20 µM |
| CC12CCC(=O)C=C1CCC1C2CCC2(C)C(C(=O)COS(=O)(=O)c3ccc(Br)cc3)CCC12 (stereo not drawn) [NSC88915, 6] | 17 µM |
| c1ccc(C[n+]2cccc(-c3cc4ccccc4[nH]3)c2)cc1 [NSC118806, 7] | 109 µM |
| N#Cc1ccc(OC(=O)c2ccc(NC(=N)N)cc2)cc1 [NSC168197, 8] | 285 µM |
| CN(C)CCC(=O)C1(O)CCC2C3CC=C4CC(O)CCC4(C)C3CCC21C (stereo not drawn) [NSC48630, 3] | 3.6 µM |
